# Reference: patent US20240101963A1, “SC-BETA CELLS AND COMPOSITIONS AND METHODS FOR GENERATING THE SAME” (President and Fellows of Harvard College, priority 2013, published 2024)
# B1: Activin A: growth factor from the TGF-β superfamily (protein, UniProt P08476 311-426, looked up)
# Inhibin beta A chain: GLECDGKVNICCKKQFFVSFKDIGWNDWIIAPSGYHANYCEGECPSHIAGTSGSSLSFHSTVINHYRMRGHSPFANLKSCCVPTKLRPMSMLYYDDGQNIIKKDIQNMIVEECGCS
# modifications: Inhibin beta A chain
# notes: growth factor from the TGF-β superfamily
# B2: prolactin: hormone tested for increasing β cell replication (protein, UniProt P01236 29-227, looked up)
# Prolactin: LPICPGGAARCQVTLRDLFDRAVVLSHYIHNLSSEMFSEFDKRYTHGRGFITKAINSCHTSSLATPEDKEQAQQMNQKDFLSLIVSILRSWNEPLYHLVTEVRGMQEAPEAILSKAVEIEEQTKRLLEGMELIVSQVHPETKENEIYPVWSGLPSLQMADEESRLSAYYNLLHCLRRDSHKIDNYLKLLKCRIIHNNNC
# Legend:
# Assay type in all cases: cell-based, human
# SC-β cells [1] = assay: Insulin secretion of plated SC-β cells treated with anti-diabetic drugs in 2 and 20 mM glucose; conditions: SC-β cells treated with drug; trend
# Protocol: FIG. 16A is a schematic illustration of the utility of SC-β cells for treating diabetes or screening drugs to improve function or replication. FIG. 16B is a table listing diabetic drugs investigated and their general therapeutic category. FIG. 16C is a graph showing ELISA measurements of secreted human insulin from plated SC-β cells treated with the indicated drugs in 2 and 20 mM glucose. Indicated p values compare the insulin value in 20 mM glucose between the drug and the control. FIG. 16D is an immunofluorescence image of dispersed and plated SC-β cells stained with DAPI (blue), C-peptide (green), and Ki67 (red) without treatment. FIG. 16E is an immunofluorescence image of dispersed and plated SC-β cells stained with DAPI (blue), C-peptide (green), and Ki67 (red) treated with prolactin for 48 hours. […] FIG. 16G is a graph illustrating fasting blood glucose measurements of Akita mice transplanted with SC-β cells (n=6) or PH cells (n=6). *p<0.05 comparing the two cell groups on the same day. FIG. 16H is a graph illustrating blood glucose measurements from progressively diabetic Akita mice transplanted with SC-β cells or PH cells. Measurements were taken before (white bars) and 20 min after (black bars) a glucose injection of mice transplanted 2 weeks prior. Glucose measurements were saturated at 550 mg/dL. *p<0.05 comparing the two cell groups at the same time post glucose injection. FIG. 16I is a graph showing ELISA measurements of human insulin from the serum of Akita mice 20 min after a glucose injection. Mice were challenged with glucose 2 weeks post transplantation. *p<0.05 comparing the two cell groups. Scale bar=50 μm.
# The inventors first tested whether SC-β cells could respond to existing anti-diabetic drugs from several different classes (FIG. 16B). LY2608204 is glucokinase activator in clinical trials while liraglutide, tolbutamide, and nateglinide are examples of GLP-1 agonists and secretagogues (sulfonylureas and meglitinides), respectively, that have been used clinically (Matschinsky, 2009; Modi, 2007; Vetere et al., 2014).
# hPSC = assay: Modified differentiation protocol Steps 3-6: cell survival and marker expression; conditions: for cell survival: Steps 3-5
# Text: (Watanabe, K. et al., Nature Biotechnology 25, 681-686 (2007)).
# (Watanabe et al.) Examples of Rock inhibitors include, but are not limited to, Y-27632, Fasudil/HA1077, and H-1152.
# In addition to treating the cells with a Rocki inhibitor, the cells in Steps 3-4 can be treated with ActivinA alone or in combination with Nicotinamide.
# Staurosporine is known to be an activator of neuronal, glial, and stem cell-like neurosphere differentiation and is also thought to induce apoptosis. (Schumacher, et al., Mol. Cell. Neurosci. 2003; 23(4): 669-680).
# SC-β cells [2] = assay: GSIS of SC-β cells after adding additional factors to CMRL media at last differentiation step (Stage 6); conditions: factor added to CMRL media containing Alk5 inhibitor and T3; versus CMRL only, CMRL+Alk5i+T3 or S3+Alk5i+T3
# Text: To induce the in vitro maturation of at least some of the Pdx1-positive, NKX6-1-positive, insulin-positive endocrine cells into SC-β cells, the Pdx1-positive, NKX6-1-positive, insulin-positive endocrine cells are maintained in a suitable culture medium for a sufficient period of time. […] Adding additional factors to the CMRL media at the last step of differentiation (Stage 6) (FIG. 14A), however, was also found to generate a better glucose stimulated insulin secretion (GSIS) response by SC-β cells as measured by either stimulation index between high and low glucose challenges or by the amount of insulin released. Such additional factors may include, but are not limited to, Sant1, XXI, and SSP. The stimulation index, as calculated by the ratio of insulin secreted in high glucose (15 mM) to low glucose (2.5 mM), was greater for the SC-β cells maintained in a CMRL media containing Alk5 inhibitor, T3 hormone and either Sant1, XXI or SSP than those SC-β cells maintained in only CMRL media, CMRL media containing Alk5 inhibitor and T3 hormone, or S3 media containing Alk5 inhibitor and T3 hormone (FIG. 14B). Furthermore, the amount of insulin secreted was greater for the SC-β cells maintained in a CMRL media containing Alk5 inhibitor, T3 hormone and either Sant1, XXI or SSP than those SC-β cells maintained in only CMRL media, CMRL media containing Alk5 inhibitor and T3 hormone, or S3 media containing Alk5 inhibitor and T3 hormone (FIG. 14C).
# Alternatively, Days 21-35: CMRLS+10 μM Alk5i II+1 μM T3+Sant1.
# Alternatively, Days 21-35: CMRLS+10 μM Alk5i II+1 μM T3+XXI.
# Alternatively, Days 21-35: CMRLS+10 μM Alk5i II+1 μM T3+SSP.
# SC-β cells [3] = assay: β cell replication: C-peptide/Ki67 staining of SC-β cells; conditions: SC-β cells cultured with prolactin (48 hours); untreated 0.20±0.08%
# Text: Next the inventors tested whether SC-β cells could model β cell replication. Increasing a patient's β cell mass may improve glycemic control by producing more insulin in total without needing to increase the amount of insulin produced per β cell. To date, few if any drugs that have promoted β cell replication in rodent or cell line models have been translated to human β cells. […] The inventors tested whether treatment with prolactin could increase β cell replication in a SC-β cell population. After culturing SC-β cells with prolactin, cells were stained and fixed for C-peptide and the proliferation marker Ki67 (FIGS. 16D and 16E). Like primary human β cells, the baseline number of Ki67+ proliferating SC-β cells was very low (0.20±0.08% Ki67+/C-peptide+) (FIG. 16F).
# Cells were dispersed and plated onto 96 well plates. After one day of culture, cells were washed in PBS and fixed in 4% PFA for 20 min at RT. Following 3 washes with PBS, cells were blocked for 1 hour at RT in PBS+0.1% Triton X-100+5% donkey serum. […] The percentage of target cell-types was quantified using the Array Scan Cellomics high-content screening system. Here 30 images were acquired per well and quantified. Cells labeled by antibody staining and total cell number (based on DAPI nuclei staining) were quantified to obtain percentages of target cell types.
Molecule,insulin secretion in vitro following a glucose challenge (SC-β cells [1]),amount of insulin secreted (SC-β cells [2]),"stimulation index, ratio of insulin secreted in high glucose (15 mM) to low glucose (2.5 mM) (SC-β cells [2])",further results
O=C(Nc1ncc(SCCN2CCCC2)s1)[C@]1(c2ccc(S(=O)(=O)C3CC3)cc2)C[C@H]1C1CCCCC1 [LY2608204],increasing insulin secretion,–,–,–
NC(=O)c1cccnc1 [Nicotinamide],–,–,–,cell survival (hPSC): improve cell survival
Cc1nn(-c2ccccc2)c(C)c1/C=N/N1CCN(Cc2ccccc2)CC1 [Sant1],–,greater,greater,–
C[C@H](NC(=O)Cc1cc(F)cc(F)c1)C(=O)N[C@H]1N=C(c2ccccc2)c2ccccc2N(C)C1=O [XXI],–,greater,greater,NeuroD1+ population (hPSC; XXI added to medium with Alk5i and T3 at Steps 5 and 6): increase
CC(C)[C@H]1CC[C@H](C(=O)N[C@H](Cc2ccccc2)C(=O)O)CC1 [nateglinide],increasing insulin secretion,–,–,–
CN[C@@H]1C[C@H]2O[C@@](C)([C@@H]1OC)n1c3ccccc3c3c4c(c5c6ccccc6n2c5c31)C(=O)NC4 [staurosporine],–,greater,greater,percentage of ChromograninA (hPSC; Steps 5-6): increasing; percentage of NKX6-1.C-peptide+ cells (hPSC; Steps 5-6): increasing
CCCCNC(=O)NS(=O)(=O)c1ccc(C)cc1 [tolbutamide],increasing insulin secretion,–,–,–
B1,–,–,–,cell survival (hPSC): improve cell survival
B2,–,–,–,Ki67+/C-peptide+ cells after prolactin treatment (SC-β cells [3]): 0.39±0.08%
